Laboratory results reported in paper PMC3849095, “Trans-chalcone and quercetin down-regulate fatty acid synthase gene expression and reduce ergosterol content in the human pathogenic dermatophyte Trichophyton rubrum” (BMC Complementary and Alternative Medicine, 2013).
Where two headings read alike, the source gives them in different places.

Biological target: T1, Fatty acid synthase (FAS) (Saccharomyces cerevisiae, UniProt P07149+P19097)
T1 construct: gene FAS1; with FAS2 (alpha subunit of the yeast FAS complex)
T1 sequence (P19097 whole entry): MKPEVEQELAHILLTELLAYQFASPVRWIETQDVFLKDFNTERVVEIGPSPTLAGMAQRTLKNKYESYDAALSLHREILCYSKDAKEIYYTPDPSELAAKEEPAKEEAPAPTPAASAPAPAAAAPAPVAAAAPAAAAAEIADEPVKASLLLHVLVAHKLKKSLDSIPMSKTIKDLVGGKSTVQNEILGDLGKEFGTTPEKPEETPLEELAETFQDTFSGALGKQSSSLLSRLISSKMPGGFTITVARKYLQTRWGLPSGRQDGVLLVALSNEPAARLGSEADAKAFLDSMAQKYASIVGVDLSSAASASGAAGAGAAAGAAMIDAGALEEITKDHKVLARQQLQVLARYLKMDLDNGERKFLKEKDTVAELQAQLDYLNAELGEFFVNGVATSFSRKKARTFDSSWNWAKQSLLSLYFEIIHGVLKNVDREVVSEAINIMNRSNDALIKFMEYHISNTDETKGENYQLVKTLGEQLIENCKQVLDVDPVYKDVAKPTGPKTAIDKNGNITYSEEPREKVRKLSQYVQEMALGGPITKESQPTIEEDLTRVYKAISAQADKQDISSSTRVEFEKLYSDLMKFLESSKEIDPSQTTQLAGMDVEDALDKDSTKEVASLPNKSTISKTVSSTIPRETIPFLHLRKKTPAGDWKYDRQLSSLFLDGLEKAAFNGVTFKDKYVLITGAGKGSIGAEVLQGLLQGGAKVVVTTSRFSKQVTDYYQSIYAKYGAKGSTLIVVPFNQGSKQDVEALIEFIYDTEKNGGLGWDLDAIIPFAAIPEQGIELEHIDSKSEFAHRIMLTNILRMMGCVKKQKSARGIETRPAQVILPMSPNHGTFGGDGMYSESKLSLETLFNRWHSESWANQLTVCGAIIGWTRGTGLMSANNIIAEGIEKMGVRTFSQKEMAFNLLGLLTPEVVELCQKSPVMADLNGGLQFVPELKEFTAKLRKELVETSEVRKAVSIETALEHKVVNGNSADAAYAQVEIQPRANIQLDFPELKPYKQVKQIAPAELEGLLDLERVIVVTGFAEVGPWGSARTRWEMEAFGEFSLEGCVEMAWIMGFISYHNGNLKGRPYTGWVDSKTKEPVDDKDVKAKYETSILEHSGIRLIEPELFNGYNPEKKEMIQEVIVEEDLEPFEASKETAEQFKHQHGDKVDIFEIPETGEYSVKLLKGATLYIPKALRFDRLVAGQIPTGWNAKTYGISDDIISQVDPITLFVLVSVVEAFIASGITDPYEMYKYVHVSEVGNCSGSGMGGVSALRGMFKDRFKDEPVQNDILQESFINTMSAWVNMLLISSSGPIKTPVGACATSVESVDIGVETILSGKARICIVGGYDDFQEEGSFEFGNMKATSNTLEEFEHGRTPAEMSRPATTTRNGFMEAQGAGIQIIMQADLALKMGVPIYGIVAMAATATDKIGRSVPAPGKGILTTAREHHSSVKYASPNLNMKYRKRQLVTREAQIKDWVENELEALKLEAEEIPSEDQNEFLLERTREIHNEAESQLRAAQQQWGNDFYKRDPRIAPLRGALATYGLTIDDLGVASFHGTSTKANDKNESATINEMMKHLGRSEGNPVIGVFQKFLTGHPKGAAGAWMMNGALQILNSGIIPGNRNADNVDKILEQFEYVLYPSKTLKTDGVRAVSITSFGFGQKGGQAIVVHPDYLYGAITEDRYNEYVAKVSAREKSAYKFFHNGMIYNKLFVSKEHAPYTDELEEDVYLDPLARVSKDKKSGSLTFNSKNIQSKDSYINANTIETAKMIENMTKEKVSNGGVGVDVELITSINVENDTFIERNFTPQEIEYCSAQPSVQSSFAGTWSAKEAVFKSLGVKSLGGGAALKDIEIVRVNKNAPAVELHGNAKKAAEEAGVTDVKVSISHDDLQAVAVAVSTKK
T1 sequence (P07149 whole entry): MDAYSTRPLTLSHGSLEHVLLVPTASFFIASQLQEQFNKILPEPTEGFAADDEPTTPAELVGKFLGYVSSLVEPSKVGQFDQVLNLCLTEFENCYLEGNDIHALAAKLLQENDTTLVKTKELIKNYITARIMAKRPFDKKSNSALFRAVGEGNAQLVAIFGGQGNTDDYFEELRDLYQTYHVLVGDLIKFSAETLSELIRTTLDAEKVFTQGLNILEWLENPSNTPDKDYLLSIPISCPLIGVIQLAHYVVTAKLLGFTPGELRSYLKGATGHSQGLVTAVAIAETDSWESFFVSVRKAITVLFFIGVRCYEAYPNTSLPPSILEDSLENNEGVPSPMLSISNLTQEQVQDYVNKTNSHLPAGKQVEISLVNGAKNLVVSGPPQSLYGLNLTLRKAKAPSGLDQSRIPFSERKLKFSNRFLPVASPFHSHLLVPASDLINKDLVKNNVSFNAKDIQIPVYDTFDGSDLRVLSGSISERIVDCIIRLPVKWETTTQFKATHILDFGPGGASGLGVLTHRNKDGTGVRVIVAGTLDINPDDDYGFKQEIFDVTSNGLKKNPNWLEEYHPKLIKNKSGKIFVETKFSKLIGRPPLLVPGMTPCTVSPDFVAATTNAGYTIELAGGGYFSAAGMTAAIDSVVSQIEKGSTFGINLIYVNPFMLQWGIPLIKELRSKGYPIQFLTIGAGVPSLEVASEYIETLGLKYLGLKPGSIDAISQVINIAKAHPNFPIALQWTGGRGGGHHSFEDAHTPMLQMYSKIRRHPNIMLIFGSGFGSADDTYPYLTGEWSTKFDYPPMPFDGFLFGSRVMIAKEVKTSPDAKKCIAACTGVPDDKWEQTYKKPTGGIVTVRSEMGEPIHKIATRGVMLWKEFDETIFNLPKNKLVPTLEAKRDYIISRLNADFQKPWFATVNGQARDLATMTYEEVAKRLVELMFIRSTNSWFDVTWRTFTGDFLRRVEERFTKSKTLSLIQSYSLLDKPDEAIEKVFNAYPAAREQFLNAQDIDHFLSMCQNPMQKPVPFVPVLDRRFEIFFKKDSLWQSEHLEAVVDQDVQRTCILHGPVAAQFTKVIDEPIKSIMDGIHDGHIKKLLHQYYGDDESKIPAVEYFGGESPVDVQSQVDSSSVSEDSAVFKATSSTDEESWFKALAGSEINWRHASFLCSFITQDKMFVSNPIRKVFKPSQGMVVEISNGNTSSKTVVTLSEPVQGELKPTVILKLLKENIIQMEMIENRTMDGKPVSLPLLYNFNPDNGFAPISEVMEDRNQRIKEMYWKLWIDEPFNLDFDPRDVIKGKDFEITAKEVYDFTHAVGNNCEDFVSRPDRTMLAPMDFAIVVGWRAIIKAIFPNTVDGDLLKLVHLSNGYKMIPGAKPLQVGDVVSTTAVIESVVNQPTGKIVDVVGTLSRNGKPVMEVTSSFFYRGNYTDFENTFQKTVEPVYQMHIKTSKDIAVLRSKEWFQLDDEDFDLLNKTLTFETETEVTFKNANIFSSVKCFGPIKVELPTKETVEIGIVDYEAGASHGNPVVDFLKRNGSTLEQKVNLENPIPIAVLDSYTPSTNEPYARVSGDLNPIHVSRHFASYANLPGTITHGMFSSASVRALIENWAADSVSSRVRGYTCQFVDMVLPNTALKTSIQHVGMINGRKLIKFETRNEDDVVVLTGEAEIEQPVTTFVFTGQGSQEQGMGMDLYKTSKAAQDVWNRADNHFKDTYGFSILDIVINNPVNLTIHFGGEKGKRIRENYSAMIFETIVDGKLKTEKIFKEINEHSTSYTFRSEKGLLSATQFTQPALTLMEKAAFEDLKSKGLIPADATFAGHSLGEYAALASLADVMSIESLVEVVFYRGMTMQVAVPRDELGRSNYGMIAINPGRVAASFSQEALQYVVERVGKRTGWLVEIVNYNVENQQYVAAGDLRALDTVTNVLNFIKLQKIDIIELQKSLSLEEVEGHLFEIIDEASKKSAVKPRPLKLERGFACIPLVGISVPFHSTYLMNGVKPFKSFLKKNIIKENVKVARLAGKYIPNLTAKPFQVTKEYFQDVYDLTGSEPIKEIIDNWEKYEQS
Experiment: FAS activity (absorbance at […] nm, malonyl CoA/acetyl CoA/NADPH) in ammonium sulfate-precipitated yeast protein extract
Format: biochemical

Row | Compound | IC50 (read-out: IC50 (μg/mL) (converted)) | IC50 (read-out: IC50 (converted))
1 | O=c1c(O)c(-c2ccc(O)c(O)c2)oc2cc(O)cc(O)c12 [QCT, Quercetin] | 56.6 µM | 
2 | O=C(/C=C/c1ccccc1)c1ccccc1 [T-CHL, Trans-chalcone] |  | 328 µM
